Assay results from patent US20250380696A1, “METHOD FOR CONTROLLING UNDESIRED PLANTS AND PROMOTING GROWTH OF USEFUL PLANTS” (ISHIHARA SANGYO KAISHA, LTD., priority 2022, published 2025).

How the values were obtained:
Assay type in all cases: in vivo
[1] = test system: forage corn (cultivar: SNOW DENT OTOHA); experiment: (19) Plant growth promotion effect test (corn), Italian ryegrass sown; conditions: 21st day after the sowing, above-ground part
From the text: Upland soil was put in a 1/1,000,000 hectare pot, and seeds of Italian ryegrass (Lolium multiflorum) were sown. When the Italian ryegrass reached 3.2 to 3.7 leaf stage, a water-based suspension containing tiafenacil as the active ingredient, prepared by a conventional method for preparing a water-based suspension, and a wettable powder containing tri-allate as the active ingredient, prepared by a conventional method for preparing a wettable powder or an emulsifiable concentrate containing pethoxamid as the active ingredient (tradename: Successor 600, manufactured by Stähler Suisse SA) were diluted with water (in an amount corresponding to 200 liter per hectare) containing 0.5 vol % of an agricultural spreader (tradename: Destiny HC, manufactured by Winfield Solutions, LLC.) and sprayed by a small spray gun (model: W-101-132G, manufactured by ANEST IWATA Corporation). Seeds of forage corn (cultivar: SNOW DENT OTOHA, manufactured by SNOW BRAND SEED Co., Ltd.) were sown in the pot after spraying. On the 21st day after the sowing, the above-ground part of the forage corn was reaped, and its weight was measured to obtain the raw weight.

[2] = test system: soybean (cultivar: Enrei); experiment: (24) Plant growth promotion effect test (soybean), undesired plants not sown; conditions: 48th day after the sowing, above-ground part
From the text: Upland soil was put in a 1/500,000 hectare pot, and a water-based suspension containing tiafenacil as the active ingredient, prepared by a conventional method for preparing a water-based suspension, and an emulsifiable concentrate containing S-metolachlor as the active ingredient (tradename: Dual Gold, manufactured by Syngenta), a wettable powder containing metribuzin as the active ingredient (tradename: SENCOR wettable powder, manufactured by Bayer Crop Science), water dispersible granules containing pyroxasulfone as the active ingredient (tradename: Sakura, manufactured by Bayer Crop Science), a wettable powder containing tri-allate as the active ingredient, prepared by a conventional method for preparing a wettable powder, an emulsifiable concentrate containing pethoxamid as the active ingredient (tradename: Successor 600, manufactured by Stähler Suisse SA) or an emulsifiable concentrate containing dimethenamid-P as the active ingredient (tradename: Fieldstar P emulsifiable concentrate, manufactured by BASF) were diluted with water (in an amount corresponding to 200 liter per hectare) containing 0.5 vol % of an agricultural spreader (tradename: Destiny HC, manufactured by Winfield Solutions, LLC.) and sprayed by a small spray gun (model: W-101-132G, manufactured by ANEST IWATA Corporation). Seeds of soybean (cultivar: Enrei, manufactured by Asahi Noen Seed Co., Ltd.) were sown in the pot after spraying. On the 48th day after the sowing, the above-ground part of the soybean was reaped, and its weight was measured to obtain the total weight.

[3] = test system: soybean (cultivar: Enrei); experiment: (23) Plant growth promotion effect test (soybean), Italian ryegrass sown, seed weight; conditions: 97th day after the sowing
From the text: Upland soil was put in a 1/200,000 hectare pot, and seeds of Italian ryegrass (Lolium multiflorum) were sown. When the Italian ryegrass reached 2.5 to 3.0 leaf stage, a water-based suspension containing tiafenacil as the active ingredient, prepared by a conventional method for preparing a water-based suspension, and an emulsifiable concentrate containing S-metolachlor as the active ingredient (tradename: Dual Gold, manufactured by Syngenta), a wettable powder containing metribuzin as the active ingredient (tradename: SENCOR wettable powder, manufactured by Bayer Crop Science), water dispersible granules containing pyroxasulfone as the active ingredient (tradename: Sakura, manufactured by Bayer Crop Science), a wettable powder containing tri-allate as the active ingredient, prepared by a conventional method for preparing a wettable powder, an emulsifiable concentrate containing pethoxamid as the active ingredient (tradename: Successor 600, manufactured by Stähler Suisse SA) or an emulsifiable concentrate containing dimethenamid-P as the active ingredient (tradename: Fieldstar P emulsifiable concentrate, manufactured by BASF) were diluted with water (in an amount corresponding to 200 liter per hectare) containing 0.5 vol % of an agricultural spreader (tradename: Destiny HC, manufactured by Winfield Solutions, LLC.) and sprayed by a small spray gun (model: W-101-132G, manufactured by ANEST IWATA Corporation). Seeds of soybean (cultivar: Enrei, manufactured by Asahi Noen Seed Co., Ltd.) were sown in the pot after spraying and the soybean was cultivated. On the 97th day after the sowing, seeds were collected from the grown soybean, and their weight was measured to obtain the total weight.

[4] = test system: Italian ryegrass (Lolium multiflorum); experiment: (5) Herbicidal effect test, pot, spray at 3.0 to 3.3 leaf stage; conditions: 6th day after spraying
From the text: [formula] • X: growth inhibition rate when treated with α (g/ha) of compound A, • Y: growth inhibition rate when treated with β (g/ha) of compound B, • E: growth inhibition rate expected when treated with α (g/ha) of compound A and β (g/ha) of compound B (expected value).
Upland soil was put in a 1/1,000,000 hectare pot, and seeds of Italian ryegrass (Lolium multiflorum) were sown. When the Italian ryegrass reached 3.0 to 3.3 leaf stage, a water-based suspension containing tiafenacil as the active ingredient, prepared by a conventional method for preparing a water-based suspension, and a wettable powder containing metribuzin as the active ingredient (tradename: SENCOR wettable powder, manufactured by Bayer Crop Science), water dispersible granules containing pyroxasulfone as the active ingredient (tradename: Sakura, manufactured by Bayer Crop Science) or a wettable powder containing tri-allate as the active ingredient, prepared by a conventional method for preparing a wettable powder, were diluted with water (in an amount corresponding to 200 liter per hectare) containing 0.5 vol % of an agricultural spreader (tradename: Destiny HC, manufactured by Winfield Solutions, LLC.) and sprayed by a small spray gun (model: W-101-132G, manufactured by ANEST IWATA Corporation). On the 6th day after spraying, the state of growth of the Italian ryegrass was visually observed, and the growth inhibition rate (%) was obtained in accordance with the evaluation standards described in the above (1) herbicidal effect test, and the results are shown in Table 5. Further, the expected value of the growth inhibition rate (%) was calculated in accordance with the Colby's formula described in the above (1) herbicidal effect test, and the results are also shown in Table 5.

CCOCCN(C(=O)CCl)C(=C(C)C)c1ccccc1 [pethoxamid]
Raw weight (g) of forage corn ([1]; Dose 93.8 g/ha): 3.4 g
Raw weight (g) of forage corn ([1]; Dose 375 g/ha): 2.2 g
Raw weight (g) of forage corn ([1]; Dose 750 g/ha): 3.6 g
Raw weight (g) of soybean ([2]; Dose 200 g/ha): 26.7 g
Total weight (g) of soybean seeds ([3]; Dose 750 g/ha): 11.0 g

CSc1nnc(C(C)(C)C)c(=O)n1N [metribuzin]
Raw weight (g) of soybean ([2]; Dose 150 g/ha): 16.1 g
Total weight (g) of soybean seeds ([3]; Dose 18.75 g/ha): 14.2 g
inhibition at 137.5 g/ha ([4]; Lolium multiflorum, Dose 137.5 g/ha, read-out: Growth inhibition rate (%) Measured value): 20%
inhibition at 275 g/ha ([4]; Lolium multiflorum, Dose 275 g/ha, read-out: Growth inhibition rate (%) Measured value): 30%
inhibition at 550 g/ha ([4]; Lolium multiflorum, Dose 550 g/ha, read-out: Growth inhibition rate (%) Measured value): 30%

COC(=O)CCNC(=O)C(C)Sc1cc(-n2c(=O)cc(C(F)(F)F)n(C)c2=O)c(F)cc1Cl (stereo not drawn) [tiafenacil]
Raw weight (g) of forage corn ([1]; Dose 6.25 g/ha): 3.9 g
Raw weight (g) of soybean ([2]; Dose 3 g/ha): 28.3 g
Total weight (g) of soybean seeds ([3]; Dose 12.5 g/ha): 14.3 g
Growth inhibition rate (%) Measured value ([4]; Dose 3.13 g/ha): 17%
Growth inhibition rate (%) Measured value ([4]; Dose 6.25 g/ha): 33%
Growth inhibition rate (%) Measured value ([4]; Dose 12.5 g/ha): 60%

Cn1nc(C(F)(F)F)c(CS(=O)(=O)C2=NOC(C)(C)C2)c1OC(F)F [pyroxasulfone]
Raw weight (g) of soybean ([2]; Dose 37.5 g/ha): 30.0 g
Total weight (g) of soybean seeds ([3]; Dose 125 g/ha): 15.6 g
inhibition at 7.5 g/ha ([4]; Lolium multiflorum, Dose 7.5 g/ha, read-out: Growth inhibition rate (%) Measured value): 0%
inhibition at 15 g/ha ([4]; Lolium multiflorum, Dose 15 g/ha, read-out: Growth inhibition rate (%) Measured value): 3%
inhibition at 62.5 g/ha ([4]; Lolium multiflorum, Dose 62.5 g/ha, read-out: Growth inhibition rate (%) Measured value): 8%
inhibition at 125 g/ha ([4]; Lolium multiflorum, Dose 125 g/ha, read-out: Growth inhibition rate (%) Measured value): 17%
inhibition at 250 g/ha ([4]; Lolium multiflorum, Dose 250 g/ha, read-out: Growth inhibition rate (%) Measured value): 23%

COC[C@H](C)N(C(=O)CCl)c1c(C)csc1C [dimethenamid-P]
Raw weight (g) of soybean ([2]; Dose 150 g/ha): 28.9 g
Total weight (g) of soybean seeds ([3]; Dose 750 g/ha): 14.1 g

CC(C)N(C(=O)SCC(Cl)=C(Cl)Cl)C(C)C [tri-allate]
Raw weight (g) of forage corn ([1]; Dose 75 g/ha): 2.6 g
Raw weight (g) of forage corn ([1]; Dose 625 g/ha): 2.2 g
Raw weight (g) of forage corn ([1]; Dose 1250 g/ha): 2.5 g
Raw weight (g) of soybean ([2]; Dose 200 g/ha): 18.2 g
Total weight (g) of soybean seeds ([3]; Dose 625 g/ha): 17.0 g
inhibition at 75 g/ha ([4]; Lolium multiflorum, Dose 75 g/ha, read-out: Growth inhibition rate (%) Measured value): 0%
inhibition at 150 g/ha ([4]; Lolium multiflorum, Dose 150 g/ha, read-out: Growth inhibition rate (%) Measured value): 0%
inhibition at 625 g/ha ([4]; Lolium multiflorum, Dose 625 g/ha, read-out: Growth inhibition rate (%) Measured value): 2%
inhibition at 1250 g/ha ([4]; Lolium multiflorum, Dose 1250 g/ha, read-out: Growth inhibition rate (%) Measured value): 5%

CCc1cccc(C)c1N(C(=O)CCl)[C@@H](C)COC [S-metolachlor]
Raw weight (g) of soybean ([2]; Dose 75 g/ha): 27.1 g
Total weight (g) of soybean seeds ([3]; Dose 750 g/ha): 12.7 g
